These results are taken from patent US20180057507A1, “INHIBITORS OF DUAL LEUCINE ZIPPER (DLK) KINASE FOR THE TREATMENT OF DISEASE” (Board of Regents, The University of Texas System, priority 2016, published 2018).

Broadly, the Kd is the concentration at which binding is half-saturated.

This test deals with T1, human DLK (Homo sapiens, UniProt Q12852).
T1 sequence (Q12852 1-859): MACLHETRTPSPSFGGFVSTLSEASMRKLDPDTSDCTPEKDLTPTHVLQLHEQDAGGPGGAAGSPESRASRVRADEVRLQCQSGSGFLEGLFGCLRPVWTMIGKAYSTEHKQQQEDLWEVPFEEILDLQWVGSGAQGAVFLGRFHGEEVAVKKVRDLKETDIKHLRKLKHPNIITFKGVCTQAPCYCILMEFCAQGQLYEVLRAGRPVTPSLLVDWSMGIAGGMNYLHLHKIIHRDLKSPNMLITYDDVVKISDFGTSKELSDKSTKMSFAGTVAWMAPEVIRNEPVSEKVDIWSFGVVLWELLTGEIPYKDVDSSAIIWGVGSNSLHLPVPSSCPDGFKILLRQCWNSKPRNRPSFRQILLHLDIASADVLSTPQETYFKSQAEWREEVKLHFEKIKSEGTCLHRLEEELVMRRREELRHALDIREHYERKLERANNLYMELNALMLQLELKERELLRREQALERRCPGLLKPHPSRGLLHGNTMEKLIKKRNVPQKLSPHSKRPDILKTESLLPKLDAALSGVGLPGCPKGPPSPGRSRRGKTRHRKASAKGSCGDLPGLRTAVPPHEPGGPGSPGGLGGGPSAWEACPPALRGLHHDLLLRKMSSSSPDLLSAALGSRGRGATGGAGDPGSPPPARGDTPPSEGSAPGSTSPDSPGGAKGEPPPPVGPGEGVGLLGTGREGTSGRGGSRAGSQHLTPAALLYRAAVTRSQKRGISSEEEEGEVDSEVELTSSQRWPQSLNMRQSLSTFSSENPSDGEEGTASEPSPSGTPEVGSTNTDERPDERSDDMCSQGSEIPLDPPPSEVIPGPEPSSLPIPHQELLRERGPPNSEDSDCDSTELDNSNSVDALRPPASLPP
Briefly: DLK Kd Determinations (KINOMEscan KdELECT, DiscoveRx). The note with it: fusion protein of full length human DLK (amino acids 1-859) and NFkB DNA binding domain; qPCR readout; duplicate. Details: full length of human DLK (amino acids 1-859); host or cells: transiently transfected HEK293 cells; unpurified extract. The procedure: The DLK dissociation constants (Kd) have been determined in the KINOMEscan KdELECT Service at DiscoveRx.
A fusion protein of full length of human DLK (amino acids 1-859) and the DNA binding domain of NFkB was expressed in transiently transfected HEK293 cells. From these HEK 293 cells, extracts were prepared in M-PER extraction buffer (Pierce) in the presence of Protease Inhibitor Cocktail Complete (Roche) and Phosphatase Inhibitor Cocktail Set II (Merck) per manufacturers' instructions. The DLK fusion protein was labeled with a chimeric double-stranded DNA tag containing the NFkB binding site (5′-GGGAATTCCC-3′) fused to an amplicon for qPCR readout, which was added directly to the expression extract (the final concentration of DNA-tag in the binding reaction is 0.1 nM).
Streptavidin-coated magnetic beads (Dynal M280) were treated with a biotinylated small molecule ligand for 30 minutes at room temperature to generate affinity resins the binding assays. The liganded beads were blocked with excess biotin and washed with blocking buffer (SeaBlock (Pierce), 1% BSA, 0.05% Tween 20, 1 mM DTT) to remove unbound ligand and to reduce nonspecific binding.
Extracts were used directly in binding assays without any enzyme purification steps at a ≧10,000-fold overall stock dilution (final DNA-tagged enzyme concentration <0.1 nM). Extracts were loaded with DNA-tag and diluted into the binding reaction in a two step process. First extracts were diluted 1:100 in 1× binding buffer (PBS/0.05% Tween 20/10 mM DTT/0.1% BSA/2 μg/ml sonicated salmon sperm DNA) containing 10 nM DNA-tag. This dilution was allowed to equilibrate at room temperature for 15 minutes and then subsequently diluted 1:100 in 1× binding buffer. Test compounds were prepared as 111× stocks in 100% DMSO. Kds were determined using an 11-point 3-fold compound dilution series with three DMSO control points. All compounds for Kd measurements are distributed by acoustic transfer (non-contact dispensing) in 100% DMSO. The compounds were then diluted directly into the assays such that the final concentration of DMSO was 0.9%. All reactions performed in polypropylene 384-well plates. Each was a final volume of 0.02 mL. Assays were incubated with shaking for 1 hour at room temperature. Then the beads were pelleted and washed with wash buffer (1×PBS, 0.05% Tween 20) to remove displaced kinase and test compound. The washed based were re-suspended in elution buffer (1×PBS, 0.05% Tween 20, 0.5 μM non-biotinylated affinity ligand) and incubated at room temperature with shaking for 30 minutes. The kinase concentration in the eluates was measured by qPCR. qPCR reactions were assembled by adding 2.5 μL of kinase eluate to 7.5 μL of qPCR master mix containing 0.15 μM amplicon primers and 0.15 μM amplicon probe. The qPCR protocol consisted of a 10 minute hot start at 95° C., followed by 35 cycles of 95° C. for 15 seconds, 60° C. for 1 minute.
Test compounds were prepared as 111× stocks in 100% DMSO. Kds were determined using an 11-point 3-fold compound dilution series with three DMSO control points. All compounds for Kd measurements are distributed by acoustic transfer (non-contact dispensing) in 100% DMSO. The compounds were then diluted directly into the assays such that the final concentration of DMSO was 0.9%. The Kds were determined using a compound top concentration of 30,000 nM. Kd measurements were performed in duplicate.
Binding constants (Kds) were calculated with a standard dose-response curve using the Hill equation: […]
The Hill Slope was set to −1. Curves were fitted using a non-linear least square fit with the Levenberg-Marquardt algorithm (Levenberg, K., A method for the solution of certain non-linear problems in least squares, Q. Appl. Math. 2, 164-168 (1944)). See also Fabian, M. A. et al. A small molecule-kinase interaction map for clinical kinase inhibitors. Nat. Biotechnol. […]
The compound `Nc1ncc(-c2cn([C@H]3[C@@H]4CN(C5COC5)C[C@@H]43)c(CC(F)(F)F)n2)cc1C(F)(F)F` [Example 52, 5-(1-((1R,5S,6s)-3-(oxetan-3-yl)-3-azabicyclo[3.1.0]hexan-6-yl)-2-(2,2,2-trifluoroethyl)-1H-imidazol-4-yl)-3-(trifluoromethyl)pyridin-2-amine] had a Kd of 0.1 µM. In other words, the sub-micromolar range. To `Nc1ncc(-c2cn([C@H]3[C@@H]4CN(C5COC5)C[C@@H]43)c(C3CCC3)n2)cc1C(F)(F)F` [Example 51, 5-(2-cyclobutyl-1-((1R,5S,6s)-3-(oxetan-3-yl)-3-azabicyclo[3.1.0]hexan-6-yl)-1H-imidazol-4-yl)-3-(trifluoromethyl)pyridin-2-amine] belongs 0.13 µM; to `CC(C)c1nc(-c2cnc(N)c(C(F)(F)F)c2)cn1CC1CCOCC1` [Example 34, 5-(2-isopropyl-1-((tetrahydro-2H-pyran-4-yl)methyl)-1H-imidazol-4-yl)-3-(trifluoromethyl)pyridin-2-amine], 0.87 µM; to `COCCN1C[C@@H]2[C@H](C1)[C@H]2n1cc(-c2cnc(N)c(OC(F)F)c2)nc1C(C)C` [Example 113, 3-(difluoromethoxy)-5-(2-isopropyl-1-((1R,5S,6s)-3-(2-methoxyethyl)-3-azabicyclo[3.1.0]hexan-6-yl)-1H-imidazol-4-yl)pyridin-2-amine], 0.095 µM.

For the compound `Nc1ncc(-c2cn([C@H]3[C@@H]4CN(CC(F)(F)F)C[C@@H]43)c(CC3CC3)n2)cc1OC(F)F` [Example 102, 5-(2-(cyclopropylmethyl)-1-((1R,5S,6s)-3-(2,2,2-trifluoroethyl)-3-azabicyclo[3.1.0]hexan-6-yl)-1H-imidazol-4-yl)-3-(difluoromethoxy)pyridin-2-amine], the Kd was found to be 0.28 µM.

On to `Nc1ncc(-c2cn([C@H]3[C@@H]4CN(CC(F)F)C[C@@H]43)c(CC3CC3)n2)cc1C(F)(F)F` [Example 61, 5-(2-(cyclopropylmethyl)-1-((1R,5S,6s)-3-(2,2-difluoroethyl)-3-azabicyclo[3.1.0]hexan-6-yl)-1H-imidazol-4-yl)-3-(trifluoromethyl)pyridin-2-amine], for which the Kd stood at 0.14 µM.

Consider `CC(C)c1nc(-c2cnc(N)c(C(F)(F)F)c2)cn1CCC1CCOCC1` [Example 35, 5-(2-isopropyl-1-(2-(tetrahydro-2H-pyran-4-yl)ethyl)-1H-imidazol-4-yl)-3-(trifluoromethyl)pyridin-2-amine], for which the Kd was found to be 0.16 µM.

With `Nc1ncc(-c2cn([C@H]3[C@@H]4CN(CC(F)(F)F)C[C@@H]43)c(CC(F)(F)F)n2)cc1C(F)(F)F` [Example 124, 5-(2-(2,2,2-trifluoroethyl)-1-((1R,5S,6s)-3-(2,2,2-trifluoroethyl)-3-azabicyclo[3.1.0]hexan-6-yl)-1H-imidazol-4-yl)-3-(trifluoromethyl)pyridin-2-amine], the Kd was 0.24 µM. Under `CC(C)c1nc(-c2cnc(N)c(C(F)(F)F)c2)cn1[C@H]1[C@@H]2CN(CCF)C[C@@H]21` [Example 16, 5-(1-((1R,5S,6s)-3-(2-fluoroethyl)-3-azabicyclo[3.1.0]hexan-6-yl)-2-isopropyl-1H-imidazol-4-yl)-3-(trifluoromethyl)pyridin-2-amine] stands 0.068 µM. To `Nc1ncc(-c2cn(C3CC3)c(CC3CC3)n2)cc1C(F)(F)F` [Example 47, 5-(1-cyclopropyl-2-(cyclopropylmethyl)-1H-imidazol-4-yl)-3-(trifluoromethyl)pyridin-2-amine] belongs 0.12 µM; to `Nc1ncc(-c2cn([C@H]3[C@@H]4CNC[C@@H]43)c(C3CC3)n2)cc1OC(F)F` [Example 96, 5-(1-((1R,5S,6s)-3-azabicyclo[3.1.0]hexan-6-yl)-2-cyclopropyl-1H-imidazol-4-yl)-3-(difluoromethoxy)pyridin-2-amine], 0.053 µM. To `CC(C)c1nc(-c2cnc(N)c(OC(F)F)c2)cn1[C@H]1[C@@H]2CN(CC(F)F)C[C@@H]21` [Example 112, 5-(1-((1R,5S,6s)-3-(2,2-difluoroethyl)-3-azabicyclo[3.1.0]hexan-6-yl)-2-isopropyl-1H-imidazol-4-yl)-3-(difluoromethoxy)pyridin-2-amine] belongs 0.16 µM.
